Data taken from patent publication US12630534B2 (TAKEDA PHARMACEUTICAL COMPANY LIMITED, priority 2020, dated 2026).
Blank lines part the entries; values can stand above or below the compound they belong to.

Target: T1, human GPR139 (Homo sapiens, UniProt Q6DWJ6)
T1 construct: expressed in transfected cells; host or cells: CHO-TREx (Life Technologies) cells, expression induced with doxycycline
T1 sequence (Q6DWJ6 1-353): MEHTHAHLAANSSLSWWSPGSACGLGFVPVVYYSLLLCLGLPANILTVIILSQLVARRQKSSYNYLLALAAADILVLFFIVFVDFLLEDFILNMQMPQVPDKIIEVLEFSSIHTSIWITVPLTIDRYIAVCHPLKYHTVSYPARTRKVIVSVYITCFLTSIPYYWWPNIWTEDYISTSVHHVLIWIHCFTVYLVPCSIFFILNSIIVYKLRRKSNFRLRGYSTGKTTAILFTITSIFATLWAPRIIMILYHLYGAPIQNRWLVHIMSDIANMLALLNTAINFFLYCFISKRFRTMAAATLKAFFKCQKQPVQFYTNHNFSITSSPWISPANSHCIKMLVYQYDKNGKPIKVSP
Assay: Inhibition rate of the amount of IP1 in GPR139-expressed CHO cells (inverse agonist assay, Test Example 2)
Assay type: cell-based
Settings: relative value, inhibition rate of Example Compound 2 in Test Example 1 defined as 100%; for inhibition at 30 µM: CHO
How it was run: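 CHO-TREx cells with doxycycline-inducible human GPR139 (2 μg/mL, 17 h) were incubated with compound at 2000 cells/well for 40 min at 37° C. IP1 quantified by HTRF (665/615 nm ratio ×10000); inhibition rate expressed relative to a reference compound defined as […].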

inhibition at 30 µM: 101%
SMILES: CCn1cc(Cn2ccn(-c3cc(N4CCO[C@H](C)C4)cc(C(F)(F)F)c3Cl)c2=O)cn1 [Example 15, 1-{2-chloro-5-[(2R)-2-methylmorpholin-4-yl]-3-(trifluoromethyl)phenyl}-3-[(1-ethyl-1H-pyrazol-4-yl)methyl]-1,3-dihydro-2H-imidazol-2-one]

inhibition at 30 µM: 101%
SMILES: CCn1cc(Cn2cc(C)n(-c3cc(C(F)(F)F)cc(N4CCOC(C)(C)C4)n3)c2=O)cn1 [Example 125, 3-[6-(2,2-dimethylmorpholin-4-yl)-4-(trifluoromethyl)pyridin-2-yl]-1-[(1-ethyl-1H-pyrazol-4-yl)methyl]-4-methyl-1,3-dihydro-2H-imidazol-2-one]

inhibition at 30 µM: 99%
SMILES: Cc1nn(-c2cc(N3CCO[C@H](C)C3)cc(OC(F)(F)F)c2F)c(=O)n1Cc1cnn(C(C)C)c1 [Example 159, 2-{2-fluoro-5-[(2R)-2-methylmorpholin-4-yl]-3-(trifluoromethoxy)phenyl}-5-methyl-4-{[1-(propan-2-yl)-1H-pyrazol-4-yl]methyl}-2,4-dihydro-3H-1,2,4-triazol-3-one]

inhibition at 30 µM: 99%
SMILES: CCn1cc(Cn2c(C)c(C)n(-c3cc(OC[C@@H]4CCCO4)cc(C(F)(F)F)c3)c2=O)cn1 [Example 100]

inhibition at 30 µM: 96%
SMILES: CCn1cc(Cn2c(C)c(C)n(-c3cccc(N4CCO[C@H](C)C4)n3)c2=O)cn1 [Example 163, 1-[(1-ethyl-1H-pyrazol-4-yl)methyl]-4,5-dimethyl-3-{6-[(2R)-2-methylmorpholin-4-yl]pyridin-2-yl}-1,3-dihydro-2H-imidazol-2-one]

inhibition at 30 µM: 101%
SMILES: CCn1cc(Cn2c(C)c(C)n(-c3cc(C(F)(F)F)cc(N4CCO[C@H](C)C4)n3)c2=O)cn1 [Example 60, 1-[(1-Ethyl-1H-pyrazole-4-yl)methyl]-4,5-dimethyl-3-{6-[(2R)-2-methylmorpholine-4-yl]-4-(trifluoromethyl)pyridine-2-yl}-1,3-dihydro-2H-imidazole-2-one]

inhibition at 30 µM: 102%
SMILES: CCn1cc(Cn2cc(C)n(-c3cc(N4CCO[C@H](C)C4)cc(C(F)(F)F)c3F)c2=O)cn1 [Example 4, 1-[(1-ethyl-1H-pyrazol-4-yl)methyl]-3-{2-fluoro-5-[(2R)-2-methylmorpholin-4-yl]-3-(trifluoromethyl)phenyl}-4-methyl-1,3-dihydro-2H-imidazol-2-one]

inhibition at 30 µM: 103%
SMILES: CCn1cc(Cn2c(C)c(C)n(-c3cc(C(F)(F)F)cc(OC[C@H]4CCCO4)n3)c2=O)cn1 [Example 114, 1-[(1-ethyl-1H-pyrazol-4-yl)methyl]-4,5-dimethyl-3-[6-{[(2R)-oxolan-2-yl]methoxy}-4-(trifluoromethyl)pyridin-2-yl]-1,3-dihydro-2H-imidazol-2-one]

inhibition at 30 µM: 98%
SMILES: CCn1cc(Cn2ccn(-c3cc(N4CCO[C@@H](C)C4)cc(C(F)(F)F)c3F)c2=O)cn1 [Example 11, 1-[(1-ethyl-1H-pyrazol-4-yl)methyl]-3-{2-fluoro-5-[(2S)-2-methylmorpholin-4-yl]-3-(trifluoromethyl)phenyl}-1,3-dihydro-2H-imidazol-2-one]

The next lines start with the compound.

SMILES: Cc1cn(Cc2cnn(C(C)C)c2)c(=O)n1-c1cc(OC[C@@H]2CCCO2)cc(C(F)(F)F)c1 [Example 101, 4-methyl-3-[3-{[(2S)-oxolan-2-yl]methoxy}-5-(trifluoromethyl)phenyl]-1-{[1-(propan-2-yl)-1H-pyrazol-4-yl]methyl}-1,3-dihydro-2H-imidazol-2-one]
inhibition at 30 µM: 99%

SMILES: CCn1cc(Cn2cc(C)n(-c3cc(C(F)(F)F)cc(OCC4CCCO4)n3)c2=O)cn1 (stereo not shown) [Example 108, 1-[(1-ethyl-1H-pyrazol-4-yl)methyl]-4-methyl-3-{6-[(oxolan-2-yl)methoxy]-4-(trifluoromethyl)pyridin-2-yl}-1,3-dihydro-2H-imidazol-2-one]
Inhibition Rate at 30 μM: 102%

SMILES: CCn1cc(Cn2ccn(-c3cc(N4CCOC5(CC5)C4)cc(C(F)(F)F)c3F)c2=O)cn1 [Example 43, 1-[(1-ethyl-1H-pyrazol-4-yl)methyl]-3-[2-fluoro-5-(4-oxa-7-azaspiro[2.5]octan-7-yl)-3-(trifluoromethyl)phenyl]-1,3-dihydro-2H-imidazol-2-one]
inhibition at 30 µM: 100%

SMILES: Cc1cn(-c2cc(OC3CCOCC3)cc(C(F)(F)F)c2F)c(=O)n1Cc1cnn(C(C)C)c1 [Example 119, 1-{2-fluoro-5-[(oxan-4-yl)oxy]-3-(trifluoromethyl)phenyl}-4-methyl-3-{[1-(propan-2-yl)-1H-pyrazol-4-yl]methyl}-1,3-dihydro-2H-imidazol-2-one]
inhibition at 30 µM: 101%

SMILES: CCn1cc(Cn2ccn(-c3cc(N4CCC(F)(F)CC4)cc(C(F)(F)F)c3F)c2=O)cn1 [Example 36, 1-[5-(4,4-difluoropiperidin-1-yl)-2-fluoro-3-(trifluoromethyl)phenyl]-3-[(1-ethyl-1H-pyrazol-4-yl)methyl]-1,3-dihydro-2H-imidazol-2-one]
inhibition at 30 µM: 101%

SMILES: CCn1cc(Cn2c(C)cn(-c3cc(N4CCOC(F)(F)C4)cc(C(F)(F)F)c3F)c2=O)cn1 [Example 54, 1-[5-(2,2-difluoromorpholin-4-yl)-2-fluoro-3-(trifluoromethyl)phenyl]-3-[(1-ethyl-1H-pyrazol-4-yl)methyl]-4-methyl-1,3-dihydro-2H-imidazol-2-one]
inhibition at 30 µM: 101%

SMILES: CCn1cc(Cn2cc(C)n(-c3cc(OCC4CC4)cc(C(F)(F)F)c3)c2=O)cn1 [Example 17, 3-[3-(cyclopropylmethoxy)-5-(trifluoromethyl)phenyl]-1-[(1-ethyl-1H-pyrazol-4-yl)methyl]-4-methyl-1,3-dihydro-2H-imidazol-2-one]
inhibition at 30 µM: 99%

SMILES: CCn1cc(Cn2cc(C)n(-c3cc(OCC4CC4(F)F)cc(C(F)(F)F)c3)c2=O)cn1 (stereo not shown) [Example 50, 3-{3-[(2,2-difluorocyclopropyl)methoxy]-5-(trifluoromethyl)phenyl}-1-[(1-ethyl-1H-pyrazol-4-yl)methyl]-4-methyl-1,3-dihydro-2H-imidazol-2-one]
Inhibition Rate at 30 μM: 102%

SMILES: CCn1cc(Cn2ccn(-c3cc(-c4ccc(F)cc4)cc(C4CC4(F)F)c3F)c2=O)cn1 (stereo not shown) [Example 145, 1-[5-(2,2-difluorocyclopropyl)-4,4′-difluoro[1,1′-biphenyl]-3-yl]-3-[(1-ethyl-1H-pyrazol-4-yl)methyl]-1,3-dihydro-2H-imidazol-2-one]
Inhibition Rate at 30 μM: 102%

SMILES: CCn1cc(Cn2ccn(-c3cc(-c4ccc(F)cc4)cc(C4CC4(F)F)c3F)c2=O)cn1 (stereo not shown) [Example 131]
inhibition at 30 µM: 96%

SMILES: CC(C)n1cc(Cn2ccn(-c3cc(N(C)C4CCOCC4)cc(C(F)(F)F)c3F)c2=O)cn1 [Example 61, 1-{2-fluoro-5-[methyl(oxan-4-yl)amino]-3-(trifluoromethyl)phenyl}-3-{[1-(propan-2-yl)-1H-pyrazol-4-yl]methyl}-1,3-dihydro-2H-imidazol-2-one]
inhibition at 30 µM: 102%

SMILES: CCn1cc(Cn2cc(C)n(-c3cc(OC4CCOCC4)cc(C(F)(F)F)c3)c2=O)cn1 [Example 6, 1-[(1-ethyl-1H-pyrazol-4-yl)methyl]-4-methyl-3-{3-[(oxan-4-yl)oxy]-5-(trifluoromethyl)phenyl}-1,3-dihydro-2H-imidazol-2-one]
inhibition at 30 µM: 102%

SMILES: CCn1cc(Cn2ccn(-c3nc(N4CCOC(F)(F)C4)cc(C(F)(F)F)c3F)c2=O)cn1 [Example 123, 1-[6-(2,2-difluoromorpholin-4-yl)-3-fluoro-4-(trifluoromethyl)pyridin-2-yl]-3-[(1-ethyl-1H-pyrazol-4-yl)methyl]-1,3-dihydro-2H-imidazol-2-one]
inhibition at 30 µM: 102%

SMILES: CCn1ncc(Cn2ccn(-c3cc(N4CCO[C@H](C)C4)cc(C(F)(F)F)c3F)c2=O)c1C [Example 13, 1-[(1-ethyl-5-methyl-1H-pyrazol-4-yl)methyl]-3-{2-fluoro-5-[(2R)-2-methylmorpholin-4-yl]-3-(trifluoromethyl)phenyl}-1,3-dihydro-2H-imidazol-2-one]
inhibition at 30 µM: 101%

SMILES: CCn1cc(Cn2cc(C)n(-c3cc(OCOC)cc(C(F)(F)F)c3)c2=O)cn1 [Example 48, 1-[(1-ethyl-1H-pyrazol-4-yl)methyl]-3-[3-(methoxymethoxy)-5-(trifluoromethyl)phenyl]-4-methyl-1,3-dihydro-2H-imidazol-2-one]
inhibition at 30 µM: 101%

SMILES: CCn1cc(Cn2c(C)cn(-c3cc(N4CCC(F)(F)CC4)cc(Cl)c3F)c2=O)cn1 [Example 167, 1-[3-chloro-5-(4,4-difluoropiperidin-1-yl)-2-fluorophenyl]-3-[(1-ethyl-1H-pyrazol-4-yl)methyl]-4-methyl-1,3-dihydro-2H-imidazol-2-one]
inhibition at 30 µM: 97%

SMILES: CC(C)n1cc(Cn2ccn(-c3cc(N4CCO[C@H](C)C4)cc(C(F)(F)F)c3F)c2=O)cn1 [Example 35, 1-{2-fluoro-5-[(2R)-2-methylmorpholin-4-yl]-3-(trifluoromethyl)phenyl}-3-{[1-(propan-2-yl)-1H-pyrazol-4-yl]methyl}-1,3-dihydro-2H-imidazol-2-one]
inhibition at 30 µM: 99%

SMILES: CCn1cc(Cn2c(C)nn(-c3cc(C(F)(F)F)cc(N4CCC(F)(F)CC4)n3)c2=O)cn1 [Example 141]
inhibition at 30 µM: 101%

SMILES: CCn1cc(Cn2c(C)nn(-c3cc(N4CCOC(C)(C)C4)cc(C(F)(F)F)c3F)c2=O)cn1 [Example 96, 2-[5-(2,2-dimethylmorpholin-4-yl)-2-fluoro-3-(trifluoromethyl)phenyl]-4-[(1-ethyl-1H-pyrazol-4-yl)methyl]-5-methyl-2,4-dihydro-3H-1,2,4-triazol-3-one]
inhibition at 30 µM: 101%
